Results taken from US20130137767A1, “Methods and Compositions for Treating Arthritis with Docosahexaenoic Acid” (DSM IP ASSETS B.V., priority 2010, published 2013).

Assays:
[1] = system: Collagen-Induced Arthritis (CIA); test: Collagen-Induced Arthritis, ethyl esters (CIA-EE, Example 1): clinical arthritis severity and incidence; assay type: in vivo, Male DBA/1O1aHsd mice; conditions: for arthritis severity score as area under the curve (AUC): days 18-45, FIG. 2; for incidence of disease (clinical arthritis score greater than 0): day 45
From the text: The anti-arthritic activity of DHA, DPAn6, DHA/DPAn6 (DHA S-oil ratio) and DHA/EPA (fish oil ratio) ethyl esters (EE) in a chronic mouse model of inflammation, Collagen-Induced Arthritis (CIA), was studied.
(§1) Male DBA/1O1aHsd mice (3.5-4 weeks of age) were randomized by weight and enrolled in the study after a three day quarantine in which animals were fed the AlN-93G diet with a modified base fat: 1 part flax seed oil (flax), 9 parts hydrogenated coconut oil (HCOC) and 21 parts high-oleic safflower oil (HO-SAFF). 15 animals were enrolled per study group, with the exception of the No Disease control that had 4 animals. Study groups consisted of:
(§2) The appropriate ethyl esters were blended into the base diet to provide approximately 2500 and 5000 mg/kg polyunsaturated fatty acid (PUFA) per day. The human equivalent doses (HED) were approximately 12 g/day and 22 g/day, respectively. The 2500 mg/kg EE diets contained the following fat blend: 1 part flax, 12 parts HCOC and 23 parts HO-SAFF. The 5000 mg/kg EE diets contained a fat blend consisting of: 1 part flax, 5 parts HCOC and 20 parts HO-SAFF. All study diets provided a total of 7% fat. Animals were fed study diets for approximately 30 days prior to the first collagen injection at day 0 and remained on the diets until study termination (day 45). Animals in the No Disease control and Dexamethasone groups were fed the diet containing OA-EE. Following a second collagen injection on day 21, arthritis severity was scored daily. Blood samples were collected at day 21 and day 45. Joints, 6 per an animal, were collected for histology and pathology on day 45.
Data was analyzed and compared by one-way ANOVA using the Bonferroni post-test to compare treatment groups to respective placebo control and to make comparisons between treatment groups (GraphPad, Prism, Version 4.0). Effects were considered to be statistically significant at p<0.05.
Arthritis severity was assessed from day 18 to 45; a score of 0 represented an animal devoid of clinical arthritis symptoms and a score of 5 represented advanced clinical arthritis. Scores from 0-5 (most severe) were assigned to each digit on the fore and hind limbs based on erythema, swelling and mobility and the mean arthritis severity per animal was determined.
The incidence of disease was reduced in animals treated with DHA-EE (FIG. 3A/B). A clinical arthritis score greater than 0 was considered diseased. The incidence of disease at day 45 was 13% in animals treated with 2500 mg/kg DHA-EE, as compared to 100% disease incidence in OA-EE (placebo) control animals.

[2] = system: Collagen-Induced Arthritis (CIA); test: CIA-EE (Example 1): paw, knee and six-joint histopathology; assay type: in vivo, Male DBA/1O1aHsd mice; conditions: day 45, vs OA-EE placebo, FIG. 4
From the text: as §1, §2
Placebo-treated diseased animals had histopathology changes, consistent with those seen in type II collagen induced arthritis, in most joints, with scores ranging from normal to severe. Microscopic alteration included infiltration of synovium and periarticular tissue with neutrophils and mononuclear inflammatory cells (inflammation), marginal zone pannus and bone resorption and cartilage damage (proteoglycan loss, chondrocyte death and collagen matrix destruction). Four-paw, knee and joint parameters were assigned a quantitative score 0=normal, 1=minimal, 2=mild, 3=moderate, 4=marked, 5=severe and a total score was determined per animal.

Compound | arthritis severity score as area under the curve (AUC) ([1]; 2500 mg/kg, vs 2500 mg/kg OA-EE (placebo) control) | arthritis severity score as area under the curve (AUC) ([1]; 5000 mg/kg, vs 5000 mg/kg OA-EE (placebo) control) | incidence of disease (clinical arthritis score greater than 0) ([1]; 2500 mg/kg, FIG. 3A) [%] | knee histopathology parameters ([2]; 2500 mg/kg) | paw histopathology parameters (inflammation, pannus, cartilage damage, bone damage) ([2]; 2500 mg/kg) | knee histopathology parameters ([2]; 5000 mg/kg) | paw histopathology parameters (inflammation, pannus, cartilage damage, bone damage) ([2]; 5000 mg/kg) | incidence of disease (clinical arthritis score greater than 0) ([1]; positive control, 0.1 mg/kg) [%]
CCCCC/C=C\C/C=C\C/C=C\C/C=C\C/C=C\CCC(=O)OCC [DPAn6-EE, reference compound] | did not reduce arthritis | did not reduce arthritis | 100 | did not significantly improve | did not significantly affect | did not significantly improve | did not significantly affect | –
C[C@@H]1C[C@H]2[C@@H]3CCC4=CC(=O)C=C[C@]4(C)[C@@]3(F)[C@@H](O)C[C@]2(C)[C@@]1(O)C(=O)CO [Dexamethasone, reference compound] | – | – | – | – | – | – | – | 60
